{"source": "patent US20110207783A1", "about": "“RENIN INHIBITORS” (priority 2007, published 2011)", "key": {"renin in human plasma": {"target": "T1, renin in human plasma (Homo sapiens, UniProt P00797)", "T1 construct": "from tissue; host or cells: human plasma from 10 normal donors, spiked with human recombinant renin (3 pM)", "T1 sequence (P00797 67-406)": "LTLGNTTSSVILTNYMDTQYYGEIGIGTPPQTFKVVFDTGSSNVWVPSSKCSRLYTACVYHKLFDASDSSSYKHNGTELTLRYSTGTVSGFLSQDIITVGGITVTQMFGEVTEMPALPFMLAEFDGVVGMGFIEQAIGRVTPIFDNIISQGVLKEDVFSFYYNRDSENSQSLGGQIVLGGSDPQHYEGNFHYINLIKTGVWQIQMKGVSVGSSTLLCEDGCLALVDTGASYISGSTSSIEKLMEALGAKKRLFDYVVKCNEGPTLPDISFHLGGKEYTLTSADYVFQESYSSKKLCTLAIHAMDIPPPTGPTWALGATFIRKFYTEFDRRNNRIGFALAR", "test": "Inhibition of renin in human plasma", "format": "biochemical", "description": "The enzymatic in vitro assay was performed in 384-well polypropylene plates (Nunc). The assay buffer consisted of PBS (Gibco BRL) including 1 mM EDTA and 0.1% BSA. The reaction mixture was composed of 80 μL per well of human plasma, enzyme, Ang I-antibodies mix and 5 μL of renin inhibitors in DMSO. The human plasma mix was premixed at 4° C. and consists of • human plasma from 10 normal donors • human recombinant renin (3 pM) • Ang I-antibodies. The mixtures were then incubated at 37° C. for 2 h.\nTo determine the enzymatic activity and its inhibition, the accumulated Ang I was detected by an enzyme immunoassay (EIA) in 384-well plates (Nunc). 10 μL of the reaction mixture or standards were transferred to immuno plates which were previously coated with a covalent complex of Ang I and bovine serum albumin (Ang I-BSA). 70 μL assay buffer were added and the plates were incubated at 4° C. overnight. The plates were washed 3 times with PBS including 0.01% Tween 20, and then incubated for 2 h at RT with an anti rabbit-peroxidase coupled antibody (WA 934, Amersham). […]"}, "Renin": {"target": "T2, Renin (Homo sapiens, UniProt P00797)", "T2 sequence (P00797 67-406)": "T1 sequence (P00797 67-406)", "test": "Renin QFRET", "format": "biochemical"}}, "data": [{"smiles": "COCCCc1ccc(Cl)c(CN(C(=O)C(CN)Cc2cccnc2N)C2CC2)c1", "note": "(centres unmarked) [Example 5, 3-amino-2-[(2-amino-3-pyridinyl)methyl]-N-({2-chloro-5-[3-(methyloxy)propyl]phenyl}methyl)-N-cyclopropylpropanamide]", "values": [{"measurement": "IC50", "setting": "renin in human plasma", "result": 240, "unit": "nM"}, {"measurement": "IC50", "setting": "Renin", "result": 17, "unit": "nM"}]}]}
